The values below come from PubChem BioAssay (NCI).

Some test systems named below: HOP-62 NSCLC; NCI-H226 lung; NCI-H460 lung; RPMI-8226 leukemia; OVCAR-8 ovarian; HOP-92 NSCLC; SK-MEL-5 melanoma; 786-0 renal; KM12 colon; IGROV1 ovarian; SK-OV-3 ovarian; SNB-19 CNS; EKVX NSCLC; UACC-62 melanoma; NCI-H23 lung; MDA-MB-231 breast.
Holding throughout (assay): NCI-60 cell line screen, 48 h

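These data come from cells grown in 96-well plates and exposed to compound for 48 hours at five concentrations. TGI marks complete inhibition of growth.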 Bounds are passed on as bounds.

Regarding `CC(=O)NC(CCCCNCc1ccccc1)C(=O)NCc1ccccc1` (configuration not stated), the TGI in the assay on HOP-62 NSCLC, in the assay with NCI-H226 lung, with NCI-H460 lung, in the assay with RPMI-8226 leukemia, with OVCAR-8 ovarian and in the assay on HOP-92 NSCLC was over 100 µM each time. The TGI in the assay on SK-MEL-5 melanoma, with 786-0 renal, with KM12 colon, in the assay on IGROV1 ovarian, in the assay with SK-OV-3 ovarian and with SNB-19 CNS was over 100 µM each time. For the same compound, the TGI in the assay with EKVX NSCLC, in the assay on UACC-62 melanoma and in the assay with NCI-H23 lung was over 100 µM throughout.

Regarding `C/C(=N\O)c1ccc(OCc2cc(C(F)(F)F)cc(C(F)(F)F)c2)cc1`, the TGI was over 100 µM with HOP-62 NSCLC; over 100 µM with NCI-H226 lung; 69.1 µM in the assay with NCI-H460 lung; over 100 µM in the assay with MDA-MB-231 breast; over 100 µM in the assay on OVCAR-8 ovarian; over 100 µM with HOP-92 NSCLC. Besides, the TGI was over 100 µM in the assay on SK-MEL-5 melanoma; over 100 µM in the assay on 786-0 renal; 43.9 µM with KM12 colon; over 100 µM in the assay with IGROV1 ovarian; over 100 µM in the assay on SK-OV-3 ovarian; over 100 µM with SNB-19 CNS. In addition, the TGI in the assay with EKVX NSCLC and with NCI-H23 lung was over 100 µM in each case.

On to `Cc1[nH]c2ncn3[nH]c(=S)nc3c2c1Cc1ccccc1`, for which the TGI in the assay with HOP-62 NSCLC, in the assay with NCI-H226 lung, in the assay on NCI-H460 lung, with MDA-MB-231 breast, in the assay on OVCAR-8 ovarian and in the assay with HOP-92 NSCLC was over 100 µM in each case. Besides, the TGI in the assay with SK-MEL-5 melanoma, in the assay on 786-0 renal, in the assay with KM12 colon, in the assay on IGROV1 ovarian, in the assay on SK-OV-3 ovarian and with SNB-19 CNS was over 100 µM each time. Also, the TGI in the assay with EKVX NSCLC, in the assay on UACC-62 melanoma and with NCI-H23 lung was over 100 µM in each case.

Take `CC(=O)NC(CCCNC(=O)N(C)N=O)C(=O)NCc1ccccc1` (configuration not stated): the TGI with HOP-62 NSCLC, in the assay with NCI-H226 lung, in the assay with NCI-H460 lung, in the assay on RPMI-8226 leukemia, with OVCAR-8 ovarian and with HOP-92 NSCLC was over 100 µM in each case. The TGI in the assay on SK-MEL-5 melanoma, with 786-0 renal, with KM12 colon, in the assay with IGROV1 ovarian, in the assay on SK-OV-3 ovarian and with SNB-19 CNS was over 100 µM throughout. Further, the TGI with EKVX NSCLC, in the assay on UACC-62 melanoma and in the assay on NCI-H23 lung was over 100 µM each time.

Take `COc1ccc(OC2(c3cc(OC)ccc3OC)OC(=O)c3ccccc32)cc1` (configuration not stated): the TGI in the assay with HOP-62 NSCLC, in the assay with NCI-H226 lung, with NCI-H460 lung, with RPMI-8226 leukemia, in the assay with OVCAR-8 ovarian and with HOP-92 NSCLC was over 100 µM throughout. Besides, the TGI in the assay with SK-MEL-5 melanoma, with 786-0 renal, in the assay with KM12 colon, in the assay on IGROV1 ovarian, with SK-OV-3 ovarian and with SNB-19 CNS was over 100 µM each time. In addition, the TGI in the assay with EKVX NSCLC, in the assay with UACC-62 melanoma and in the assay with NCI-H23 lung was over 100 µM each time.

As for `Cc1cc(Cl)ccc1NC(=O)/C(=N\NC(C)(C)C)C(C#N)c1nc(-c2ccc([N+](=O)[O-])cc2)cs1` (configuration not stated), the TGI in the assay with HOP-62 NSCLC, in the assay on NCI-H226 lung, in the assay with NCI-H460 lung, in the assay on RPMI-8226 leukemia, in the assay on OVCAR-8 ovarian and with HOP-92 NSCLC was over 100 µM in each case. Besides, the TGI with SK-MEL-5 melanoma, in the assay on 786-0 renal, with KM12 colon, in the assay with IGROV1 ovarian, in the assay on SK-OV-3 ovarian and with SNB-19 CNS was over 100 µM each time. Besides, the TGI with EKVX NSCLC, in the assay with UACC-62 melanoma and in the assay on NCI-H23 lung was over 100 µM each time.

With `COc1cc([C@@H]2c3cc4c(cc3[C@@H](NCc3ccccc3F)C3COC(=O)[C@@H]32)OCO4)cc(OC)c1O` (some centres not stated), the TGI with HOP-62 NSCLC is 7.74 µM; in the assay on NCI-H226 lung it was 7.52 µM; in the assay on NCI-H460 lung it was 13.2 µM; in the assay on RPMI-8226 leukemia, 13.1 µM; in the assay on OVCAR-8 ovarian, over 100 µM; with HOP-92 NSCLC, 54.3 µM. Further, the TGI with SK-MEL-5 melanoma is 7.86 µM; with 786-0 renal it was 13.8 µM; in the assay with KM12 colon, 18 µM; in the assay on IGROV1 ovarian, 20.5 µM; with SK-OV-3 ovarian, 9.45 µM; in the assay on SNB-19 CNS, 60.5 µM. Further, the TGI with EKVX NSCLC was 45.9 µM; in the assay on UACC-62 melanoma, 4.43 µM; in the assay with NCI-H23 lung, 7.5 µM.

Take `CCOc1ccc(N(CC(=O)N2CC(=O)Nc3cc(C)c(C)cc32)C(C)=O)cc1`: the TGI with HOP-62 NSCLC, in the assay on NCI-H226 lung, in the assay on NCI-H460 lung, in the assay on RPMI-8226 leukemia, in the assay with OVCAR-8 ovarian and in the assay on HOP-92 NSCLC was over 100 µM throughout. The TGI in the assay on SK-MEL-5 melanoma, with 786-0 renal, in the assay with KM12 colon, in the assay with SK-OV-3 ovarian, with SNB-19 CNS and in the assay with EKVX NSCLC was over 100 µM throughout. For the same compound, the TGI in the assay on UACC-62 melanoma and in the assay on NCI-H23 lung was over 100 µM throughout.

In the case of `N#C/C(c1nc2ccccc2[nH]1)=c1\s/c(=C/c2ccccc2)c(=O)n1-c1ccccc1`, the TGI with HOP-62 NSCLC, in the assay with NCI-H226 lung, in the assay with NCI-H460 lung, with RPMI-8226 leukemia, in the assay with OVCAR-8 ovarian and in the assay with HOP-92 NSCLC was over 100 µM in each case. In addition, the TGI in the assay on SK-MEL-5 melanoma, in the assay with 786-0 renal, in the assay with KM12 colon, in the assay with IGROV1 ovarian, with SK-OV-3 ovarian and in the assay with SNB-19 CNS was over 100 µM each time. In addition, the TGI in the assay with EKVX NSCLC, in the assay on UACC-62 melanoma and in the assay with NCI-H23 lung was over 100 µM throughout.

As to `CC1(O)CC2C(CC1SC1CC3C(CC1(C)O)C3(C)C)C2(C)C` (configuration not stated), the TGI in the assay on NCI-H226 lung is over 100 µM; with NCI-H460 lung it was over 100 µM; in the assay on RPMI-8226 leukemia it was over 100 µM; in the assay on OVCAR-8 ovarian it was over 100 µM; with HOP-92 NSCLC it was over 100 µM; with SK-MEL-5 melanoma it was 59.7 µM. Besides, the TGI in the assay on 786-0 renal was over 100 µM; with KM12 colon it was over 100 µM; in the assay with IGROV1 ovarian, over 100 µM; in the assay on SK-OV-3 ovarian, over 100 µM; in the assay on EKVX NSCLC it was 83.9 µM; with NCI-H23 lung, over 100 µM.

As for `COc1cccc(C2=NC(C(C)C)CO2)c1OC` (configuration not stated), the TGI in the assay on HOP-62 NSCLC, with NCI-H226 lung, in the assay with NCI-H460 lung, with RPMI-8226 leukemia, in the assay with OVCAR-8 ovarian and in the assay on HOP-92 NSCLC was over 100 µM each time. For the same compound, the TGI in the assay on SK-MEL-5 melanoma, in the assay with 786-0 renal, with KM12 colon, with IGROV1 ovarian, with SK-OV-3 ovarian and in the assay with SNB-19 CNS was over 100 µM throughout. The TGI in the assay with EKVX NSCLC, in the assay with UACC-62 melanoma and in the assay on NCI-H23 lung was over 100 µM in each case.

For `CCOC(=O)c1c(CN2CCNCC2)nc2ccc(Cl)cc2c1-c1ccccc1`, the TGI in the assay with HOP-62 NSCLC worked out at 21.6 µM; in the assay with NCI-H226 lung, 33.4 µM; with NCI-H460 lung, 6.32 µM; in the assay on RPMI-8226 leukemia, 4.89 µM; in the assay with OVCAR-8 ovarian, 11.7 µM; with HOP-92 NSCLC it was 3.16 µM. Besides, the TGI in the assay on SK-MEL-5 melanoma worked out at 2.16 µM; in the assay with 786-0 renal, 3.15 µM; with KM12 colon it was 7.18 µM; with IGROV1 ovarian it was 17.1 µM; in the assay with SK-OV-3 ovarian, 21.3 µM; in the assay on SNB-19 CNS it was 28.4 µM. The TGI in the assay on EKVX NSCLC was found to be 23.4 µM; in the assay on UACC-62 melanoma, 3.76 µM; in the assay on NCI-H23 lung, 25.7 µM.

In the case of `CCOC(=O)C(=[N+]=[N-])C(=O)CSC#N`, the TGI with HOP-62 NSCLC, in the assay on NCI-H226 lung, in the assay on MDA-MB-231 breast, in the assay with OVCAR-8 ovarian, in the assay on SK-MEL-5 melanoma and in the assay with 786-0 renal was over 100 µM in each case. Besides, the TGI in the assay with KM12 colon, with IGROV1 ovarian, with SK-OV-3 ovarian, in the assay on SNB-19 CNS, with EKVX NSCLC and in the assay with UACC-62 melanoma was over 100 µM each time. Moreover, the TGI in the assay with NCI-H23 lung was over 100 µM.

Take `Cc1ccc(NC(=O)C2C3C=CC(O3)C2C(=O)O)cc1` (configuration not stated): the TGI was over 100 µM with HOP-62 NSCLC; over 100 µM in the assay on NCI-H226 lung; over 100 µM in the assay on NCI-H460 lung; 54.7 µM in the assay with RPMI-8226 leukemia; over 100 µM in the assay on OVCAR-8 ovarian; over 100 µM in the assay with HOP-92 NSCLC. Further, the TGI with SK-MEL-5 melanoma, with 786-0 renal, in the assay on IGROV1 ovarian, in the assay with SK-OV-3 ovarian, in the assay with SNB-19 CNS and in the assay with EKVX NSCLC was over 100 µM in each case. The TGI with UACC-62 melanoma and in the assay with NCI-H23 lung was over 100 µM each time.
